Measured values published in patent US7109193B2, “Tricyclic diazepines tocolytic oxytocin receptor antagonists” (Wyeth, priority 2001, dated 2006).

Molecular target: T1, human vasopressin V2 receptor subtype (Homo sapiens, UniProt P30518)
T1 construct: host or cells: CHO cells (pZeoSV vector)
Experiment: Vasopressin binding in Chinese Hamster Ovary cell membranes expressing human vasopressin V2 subtype receptors
Conditions: 100 nM, CHO cell membranes, [3H]arginine vasopressin, values without parentheses
Outline: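 Radioligand displacement on membranes from CHO cells stably expressing human V2 receptor, 25 to 50 μg protein/well, in 50 mM Tris-HCl pH 7.4 with MgCl2, BSA and protease inhibitors. [^3H]arginine vasopressin (8 nM working solution) incubated 60 min at room temperature; bound label measured by filtration and scintillation counting.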

T1 sequence (P30518 whole entry): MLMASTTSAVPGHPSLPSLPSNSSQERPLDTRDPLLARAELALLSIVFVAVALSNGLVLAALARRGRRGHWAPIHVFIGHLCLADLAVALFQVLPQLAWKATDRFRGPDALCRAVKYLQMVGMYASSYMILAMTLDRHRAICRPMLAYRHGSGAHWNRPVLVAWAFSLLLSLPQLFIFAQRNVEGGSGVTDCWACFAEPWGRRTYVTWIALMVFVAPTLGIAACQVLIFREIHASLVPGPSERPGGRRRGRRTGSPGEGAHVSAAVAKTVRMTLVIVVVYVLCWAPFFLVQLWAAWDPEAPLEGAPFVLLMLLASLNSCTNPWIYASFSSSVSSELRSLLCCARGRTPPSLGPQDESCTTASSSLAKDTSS

| inhibition at 0.1 µM | Structure (SMILES) |
| --- | --- |
| 7% | COc1cccc(-c2ccc(C(=O)N3Cc4ccc(C(=O)N5CCN(CCCN(C)C)CC5)n4Cc4ccccc43)cc2C)c1 [Example 248, {4-[3-(Dimethylamino)propyl]-1-piperazinyl}{10-[(3′-methoxy-2-methyl[1,1′-biphenyl]-4-yl)carbonyl]-10,11-dihydro-5H-pyrrolo[2,1-c][1,4]benzodiazepin-3-yl}methanone] |
| 17% | C=CCN1CCN(C(=O)c2ccc3n2Cc2ccccc2N(C(=O)c2ccc(-n4c(C)ccc4C)c(OC)c2)C3)CC1 [Example 318, (4-Allyl-1-piperazinyl){10-[4-(2,5-dimethyl-1H-pyrrol-1-yl)-3-methoxybenzoyl]-10,11-dihydro-5H-pyrrolo[2,1-c][1,4]benzodiazepin-3-yl}methanone] |
| 26% | COc1ccccc1-c1ccc(C(=O)N2Cc3ccc(C(=O)NCCCN(C)C)n3Cc3ccccc32)cc1C [Example 72, N-[3-(Dimethylamino)propyl]-10-[(2′-methoxy-2-methyl[1,1′-biphenyl]-4-yl)carbonyl]-10,11-dihydro-5H-pyrrolo[2,1-c][1,4]benzodiazepine-3-carboxamide] |
| 14% | COc1cccc(-c2ccc(C(=O)N3Cc4ccc(C(=O)NCCCN(C)C)n4Cc4ccccc43)cc2C)c1 [Example 74, N-[3-(Dimethylamino)propyl]-10-[(3′-methoxy-2-methyl[1,1′-biphenyl]-4-yl)carbonyl]-10,11-dihydro-5H-pyrrolo[2,1-c][1,4]benzodiazepine-3-carboxamide] |
| 4% | COc1cccc(-c2cc(OC)c(C(=O)N3Cc4ccc(C(=O)N5CCCN(C)CC5)n4Cc4ccccc43)cc2Cl)c1 [Example 67, {10-[(6-Chloro-3,3′-dimethoxy[1,1′-biphenyl]-4-yl)carbonyl]-10,11-dihydro-5H-pyrrolo[2,1-c][1,4]benzodiazepin-3-yl}(4-methyl-1,4-diazepan-1-yl)methanone] |
| 24% | COc1cc(-c2ccccc2C)c(Cl)cc1C(=O)N1Cc2ccc(C(=O)N3CCN(CCCN(C)C)CC3)n2Cc2ccccc21 [Example 251, {10-[(6-Chloro-3-methoxy-2′-methyl[1,1′-biphenyl]-4-yl)carbonyl]-10,11-dihydro-5H-pyrrolo[2,1-c][1,4]benzodiazepin-3-yl}{4-[3-(dimethylamino)propyl]-1-piperazinyl}methanone] |
| 11% | COc1cccc(-c2ccc(C(=O)N3Cc4ccc(C(=O)N5CCCN(C)CC5)n4Cc4ccccc43)cc2OC)c1 [Example 70, {10-[(2,3′-Dimethoxy[1,1′-biphenyl]-4-yl)carbonyl]-10,11-dihydro-5H-pyrrolo[2,1-c][1,4]benzodiazepin-3-yl}(4-methyl-1,4-diazepan-1-yl)methanone] |
| 14% | COc1ccccc1-c1ccc(C(=O)N2Cc3ccc(C(=O)N[C@@H](CCCCNC(=O)OC(C)(C)C)C(N)=O)n3Cc3ccccc32)cc1OC [Example 303, tert-Butyl (5S)-6-amino-5-[({10-[(2,2′-dimethoxy[1,1′-biphenyl]-4-yl)carbonyl]-10,11-dihydro-5H-pyrrolo[2,1-c][1,4]benzodiazepin-3-yl}carbonyl)amino]-6-oxohexylcarbamate] |
| 7% | COc1cccc(-c2ccc(C(=O)N3Cc4ccc(C(=O)n5ccnc5)n4Cc4ccccc43)cc2C)c1 [Example 289, 1H-Imidazol-1-yl-{10-[(3′-methoxy-2-methyl[1,1′-biphenyl]-4-yl)carbonyl]-10,11-dihydro-5H-pyrrolo[2,1-c][1,4]benzodiazepin-3-yl}methanone] |
| 14% | COc1ccccc1-c1ccc(C(=O)N2Cc3ccc(C(=O)NCCCN(C)C)n3Cc3ccccc32)cc1 [Example 75, N-[3-(Dimethylamino)propyl]-10-[(2′-methoxy[1,1′-biphenyl]-4-yl)carbonyl]-10,11-dihydro-5H-pyrrolo[2,1-c][1,4]benzodiazepine-3-carboxamide] |
| 1% | COc1cc(C(=O)N2Cc3ccc(C(=O)NCCCN(C)C)n3Cc3ccccc32)ccc1-n1c(C)ccc1C [Example 308, N-[3-(Dimethylamino)propyl]-10-[4-(2,5-dimethyl-1H-pyrrol-1-yl)-3-methoxybenzoyl]-10,11-dihydro-5H-pyrrolo[2,1-c][1,4]benzodiazepine-3-carboxamide] |
| 22% | COc1ccccc1-c1ccc(C(=O)N2Cc3ccc(C(=O)N4CCCN(C)CC4)n3Cc3ccccc32)cc1OC [Example 69, {10-[(2,2′-Dimethoxy[1,1′-biphenyl]-4-yl)carbonyl]-10,11-dihydro-5H-pyrrolo[2,1-c][1,4]benzodiazepin-3-yl}(4-methyl-1,4-diazepan-1-yl)methanone] |
| 17% | COc1cccc(-c2ccc(C(=O)N3Cc4ccc(C(=O)N5CCN(C)CC5)n4Cc4ccccc43)cc2C)c1 [Example 51, {10-[(3′-Methoxy-2-methyl[1,1′-biphenyl]-4-yl)carbonyl]-10,11-dihydro-5H-pyrrolo[2,1-c][1,4]benzodiazepin-3-yl}(4-methyl-1-piperazinyl)methanone] |
| 19% | COc1cccc(-c2ccc(C(=O)N3Cc4ccc(C(=O)N5CCCN(C)CC5)n4Cc4ccccc43)cc2C)c1 [Example 64, {10-[(3′-Methoxy-2-methyl[1,1′-biphenyl]-4-yl)carbonyl]-10,11-dihydro-5H-pyrrolo[2,1-c][1,4]benzodiazepin-3-yl}(4-methyl-1,4-diazepan-1-yl)methanone] |
| 17% | Cc1ccccc1-c1ccc(C(=O)N2Cc3ccc(C(=O)N4CCN(C)CC4)n3Cc3ccccc32)cc1 [Example 52, {10-[(2′-Methyl[1,1′-biphenyl]-4-yl)carbonyl]-10,11-dihydro-5H-pyrrolo[2,1-c][1,4]benzodiazepin-3-yl}(4-methyl-1-piperazinyl)methanone] |
| 31% | Cc1cc(C(=O)N2Cc3cccn3Cc3ccccc32)ccc1-c1ccncc1 [Example 31, [3-Methyl-4-(4-pyridinyl)phenyl]-[10,11-dihydro-5H-pyrrolo[2,1-c][1,4]benzodiazepin-10-yl]methanone] |
| 8% | COc1cc(C(=O)N2Cc3ccc(C(=O)N4CCCN(C)CC4)n3Cc3ccccc32)ccc1-n1c(C)ccc1C [Example 307, {10-[4-(2,5-Dimethyl-1H-pyrrol-1-yl)-3-methoxybenzoyl]-10,11-dihydro-5H-pyrrolo[2,1-c][1,4]benzodiazepin-3-yl}(4-methyl-1,4-diazepan-1-yl)methanone] |
| 32% | COc1ccccc1-c1ccc(C(=O)N2Cc3ccc(C(=O)N[C@@H](Cc4c[nH]cn4)C(N)=O)n3Cc3ccccc32)cc1C [Example 288, N-[(1S)-2-Amino-1-(1H-imidazol-4-ylmethyl)-2-oxoethyl]-10-[(2′-methoxy-2-methyl[1,1′-biphenyl]4-yl)carbonyl]-10,11-dihydro-5H-pyrrolo[2,1-c][1,4]benzodiazepine-3-carboxamide] |
| 13% | CN1CCCN(C(=O)c2ccc3n2Cc2ccccc2N(C(=O)c2ccc(-c4cccc5ccccc45)cc2Cl)C3)CC1 [Example 71, {10-[2-Chloro-4-(1-naphthyl)benzoyl]-10,11-dihydro-5H-pyrrolo[2,1-c][1,4]benzodiazepin-3-yl}(4-methyl-1,4-diazepan-1-yl)methanone] |
| 27% | COc1ccccc1-c1ccc(C(=O)N2Cc3ccc(C(=O)N[C@@H](Cc4c[nH]cn4)C(N)=O)n3Cc3ccccc32)cc1OC [Example 286, N-[(1S)-2-Amino-1-(1H-imidazol-4-ylmethyl)-2-oxoethyl]-10-[(2,2′-dimethoxy[1,1′-biphenyl]-4-yl)carbonyl]-10,11-dihydro-5H-pyrrolo[2,1-c][1,4]benzodiazepine-3-carboxamide] |
| 32% | COc1ccccc1-c1ccc(C(=O)N2Cc3ccc(C(=O)N[C@@H](Cc4c[nH]cn4)C(N)=O)n3Cc3ccccc32)cc1 [Example 285, N-[(1S)-2-Amino-1-(1H-imidazol-4-ylmethyl)-2-oxoethyl]-10-[(2′-methoxy[1,1′-biphenyl]-4-yl)carbonyl]-10,11-dihydro-5H-pyrrolo[2,1-c][1,4]benzodiazepine-3-carboxamide] |
| 27% | COc1ccccc1-c1ccc(C(=O)N2Cc3ccc(C(=O)N4CCN(C)CC4)n3Cc3ccccc32)cc1OC [Example 56, {10-[(2,2′-Dimethoxy[1,1′-biphenyl]-4-yl)carbonyl]-10,11-dihydro-5H-pyrrolo[2,1-c][1,4]benzodiazepin-3-yl}(4-methyl-1-piperazinyl)methanone] |
| 7% | COc1cc(C(=O)N2Cc3ccc(C(=O)N(C)CCN(C)C)n3Cc3ccccc32)ccc1-n1c(C)ccc1C [Example 309, N-[2-(Dimethylamino)ethyl]-10-[4-(2,5-dimethyl-1H-pyrrol-1-yl)-3-methoxybenzoyl]-N-methyl-10,11-dihydro-5H-pyrrolo[2,1-c][1,4]benzodiazepine-3-carboxamide] |
| 84% | COc1cc(C(=O)N2Cc3cccn3Cc3ccccc32)ccc1-c1ccccc1C(F)(F)F [Example 19D, (10,11-Dihydro-5H-pyrrolo[2,1-c][1,4]benzodiazepin-10-yl)-(2-methoxy-2′-trifluoromethyl-[1,1′-biphenyl]-4-yl)-methanone] |
| 27% | COc1ccccc1-c1ccc(C(=O)N2Cc3ccc(C(=O)N4CCN(C)CC4)n3Cc3ccccc32)cc1C [Example 49, {10-[(2′-Methoxy-2-methyl[1,1′-biphenyl]-4-yl)carbonyl]-10,11-dihydro-5H-pyrrolo[2,1-c][1,4]benzodiazepin-3-yl}(4-methyl-1-piperazinyl)methanone] |

| Structure (SMILES) | inhibition at 0.1 µM |
| --- | --- |
| COc1ccccc1-c1ccc(C(=O)N2Cc3ccc(C(=O)N[C@H]4CN5CCC4CC5)n3Cc3ccccc32)cc1OC [Example 299, N-[(3R)-1-Azabicyclo[2.2.2]oct-3-yl]-10-[(2,2′-dimethoxy[1,1′-biphenyl]-4-yl)carbonyl]-10,11-dihydro-5H-pyrrolo[2,1-c][1,4]benzodiazepine-3-carboxamide] | 22% |
